# Data published in ChEMBL document CHEMBL1134028, “1,2,5-Thiadiazole derivatives are potent and selective ligands at human 5-HT1A receptors” (Bioorg Med Chem Lett, 2001).
# pEC50, pIC50, pKi: −log10 of the molar value.
# Tests used:
# [1] = molecular target: T1, 5-hydroxytryptamine receptor 1A (Homo sapiens, UniProt P08908); assay: Ability to displace [3H]8-OH-DPAT from CHO cells stably transfected with human 5-hydroxytryptamine 1A receptor; type: cell-based
# T1 sequence (P08908 whole entry): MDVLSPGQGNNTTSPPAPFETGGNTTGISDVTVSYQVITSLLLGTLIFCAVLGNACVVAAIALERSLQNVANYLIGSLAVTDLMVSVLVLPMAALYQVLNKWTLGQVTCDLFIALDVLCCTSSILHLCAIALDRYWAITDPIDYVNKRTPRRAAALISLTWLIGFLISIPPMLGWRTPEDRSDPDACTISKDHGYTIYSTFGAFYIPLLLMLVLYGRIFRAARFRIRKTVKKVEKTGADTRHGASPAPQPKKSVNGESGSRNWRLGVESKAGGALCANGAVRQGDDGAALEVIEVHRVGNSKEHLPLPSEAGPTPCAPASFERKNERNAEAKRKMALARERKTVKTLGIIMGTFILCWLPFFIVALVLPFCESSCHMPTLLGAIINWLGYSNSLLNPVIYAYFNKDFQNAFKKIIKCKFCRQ
# [2] = molecular target: Adrenergic receptor alpha-1 (Rattus norvegicus) (UniProt P15823+P23944+P43140); assay: Compound was tested for percent inhibition at Alpha-1 adrenergic receptor in rat at 100 nM concentration
# CHO [3] = assay: Intrinsic activity determined by the compound ability to reverse the forskolin-stimulated turnover of cAMP in CHO cells; type: functional; details: Cricetulus griseus
# CHO [4] = assay: Effective concentration for intrinsic activity determined by the compound ability to reverse the forskolin-stimulated turnover of cAMP in CHO cells; details: Cricetulus griseus
# D(3) dopamine receptor = D(3) dopamine receptor (Homo sapiens, UniProt P35462); assay: Percent inhibition towards dopamine D3 receptor
# D(3) dopamine receptor, sequence (P35462 whole entry): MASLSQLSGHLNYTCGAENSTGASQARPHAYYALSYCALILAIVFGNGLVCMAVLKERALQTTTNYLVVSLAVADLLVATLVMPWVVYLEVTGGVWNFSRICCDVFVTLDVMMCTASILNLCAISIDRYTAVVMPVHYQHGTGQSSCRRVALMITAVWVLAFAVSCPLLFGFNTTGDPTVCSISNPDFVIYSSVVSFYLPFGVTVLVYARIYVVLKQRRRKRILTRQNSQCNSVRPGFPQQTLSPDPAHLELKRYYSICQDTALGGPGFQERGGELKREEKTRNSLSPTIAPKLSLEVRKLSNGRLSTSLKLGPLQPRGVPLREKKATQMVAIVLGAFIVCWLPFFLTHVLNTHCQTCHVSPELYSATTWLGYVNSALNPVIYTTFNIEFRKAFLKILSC
# D(4) dopamine receptor = molecular target: T2, D(4) dopamine receptor (Homo sapiens, UniProt P21917); assay: Percent inhibition towards dopamine D4 receptor
# T2 sequence (P21917 whole entry): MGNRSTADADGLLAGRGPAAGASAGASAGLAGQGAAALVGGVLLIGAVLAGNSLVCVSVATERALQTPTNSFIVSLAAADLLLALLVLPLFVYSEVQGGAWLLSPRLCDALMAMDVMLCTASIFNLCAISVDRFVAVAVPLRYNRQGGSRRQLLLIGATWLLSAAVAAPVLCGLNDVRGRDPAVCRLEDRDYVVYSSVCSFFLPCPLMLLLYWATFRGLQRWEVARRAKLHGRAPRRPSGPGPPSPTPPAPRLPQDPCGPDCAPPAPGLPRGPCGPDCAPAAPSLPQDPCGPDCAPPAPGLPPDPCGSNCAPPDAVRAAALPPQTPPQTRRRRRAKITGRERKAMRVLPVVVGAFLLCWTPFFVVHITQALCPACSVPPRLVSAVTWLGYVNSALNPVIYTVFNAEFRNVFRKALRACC
# D(2) dopamine receptor = D(2) dopamine receptor (Rattus norvegicus, UniProt P61169); assay: Percent inhibition towards dopamine D2 receptor
# D(2) dopamine receptor, sequence (P61169 whole entry): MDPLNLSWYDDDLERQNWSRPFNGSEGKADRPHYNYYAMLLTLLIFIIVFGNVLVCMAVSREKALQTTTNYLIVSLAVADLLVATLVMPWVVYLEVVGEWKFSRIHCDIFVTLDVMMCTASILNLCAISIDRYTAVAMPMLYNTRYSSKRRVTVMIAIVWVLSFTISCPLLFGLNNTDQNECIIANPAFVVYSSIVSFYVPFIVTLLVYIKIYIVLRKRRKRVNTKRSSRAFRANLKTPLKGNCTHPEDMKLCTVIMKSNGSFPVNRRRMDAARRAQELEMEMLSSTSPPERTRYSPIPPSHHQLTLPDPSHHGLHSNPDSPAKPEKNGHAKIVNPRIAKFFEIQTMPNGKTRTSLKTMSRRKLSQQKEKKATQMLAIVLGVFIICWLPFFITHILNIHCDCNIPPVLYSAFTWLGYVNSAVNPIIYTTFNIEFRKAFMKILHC
# CHO [5] = assay: Inhibitory activity determined by the compound ability to reverse the forskolin-stimulated turnover of cAMP in CHO cells; type: functional, cell-based; details: Cricetulus griseus
# [6] = molecular target: T3, 5-hydroxytryptamine receptor 1A (Homo sapiens) (UniProt P08908); assay: Ability to displace [3H]-8-OH-DPAT from CHO cells stably transfected with human 5-hydroxytryptamine 1A receptor at a concentration of 1 uM; type: cell-based
# T3 sequence (whole entry): T1 sequence (P08908 whole entry)
# [7] = molecular target: D(2) dopamine receptor (Rattus norvegicus) (UniProt P61169); assay: Percent inhibition towards dopamine D2 receptor at 100 nM concentration
# D(2) dopamine receptor (Rattus norvegicus), sequence (P61169 whole entry): as above
pKi [1],Structure (SMILES),inhibition [2] [%],Emax (CHO [3]) [%],pIC50 (CHO [5]),further results
8.52,COc1nsnc1N1CCN(C[C@@H](Cc2cccnc2)NC(=O)C2(C)CCCCC2)CC1,–,0,6.95,pIC50 (D(3) dopamine receptor): 6.31; pIC50 (D(4) dopamine receptor): 5.96; pIC50 (D(2) dopamine receptor): 5.45
–,O=C(N[C@@H](Cc1ccccc1)CN1CCN(c2nsnc2Cl)CC1)c1ccccn1,–,–,–,inhibition [6]: 47%
–,COc1nsnc1N1CCN(C[C@@H](Cc2ccccc2)N(C)C(=O)N2CCOCC2)CC1,–,–,–,inhibition [6]: 46%
8.00,COc1nsnc1N1CCN(C[C@@H](Cc2ccccc2)N(C)C(=O)c2ccccc2)CC1,15,0,8.19,–
–,CN(C(=O)C1CCCCC1)[C@H](Cc1ccccc1)CN1CCN(c2nsnc2Cl)CC1,0,–,7.31,–
8.82,COc1nsnc1N1CCN(C[C@@H](Cc2ccccc2)N(C)C(=O)C2CCCCC2)CC1,0,–,7.14,inhibition [7]: 11%

Structure (SMILES),pKi [1],inhibition [2] [%],Emax (CHO [3]) [%],pIC50 (CHO [5]),further results
O=C(N[C@@H](Cc1ccccc1)CN1CCN(c2nsnc2Cl)CC1)C1CCCCC1,9.10,17,93,–,pEC50 (CHO [4]): 8.34
